Results published in publication PMC6152416, “Pharmacological and Toxicological Screening of Novel Benzimidazole-Morpholine Derivatives as Dual-Acting Inhibitors” (Molecules : A Journal of Synthetic Chemistry and Natural …, 2017).
In brackets after ≈: the same amount, converted by molar mass. Entries after “also recorded” stand apart in the source; their conditions may differ. Marks after values point to notes of the source that are not given here.

What was measured:
Type in all cases: cell-based
[1] = tested on: Pseudomona aeuroginosa ATCC 27853; assay: Antimicrobial broth microdilution (CLSI M07-A9); details: for MIC50: Pseudomona aeuroginosa [sic] ATCC 27853
Method: Microbiological studies were performed according to CLSI reference M07-A9 broth microdilution method for bacterial strains and EUCAST definitive method EDef 7.1 for Candida species. Synthesized compounds were tested for their in vitro growth inhibitory activity against Escherichia coli ATCC 35218, Escherichia coli ATCC 25922, Staphylococcus aureus, ATCC 25923, Pseudomona aeuroginosa ATCC 27853, Enterococcus faecalis ATCC29212, Klebsiella pneumoniae ATCC700603 Listeria monocytogenes ATCC7644, Candida albicans ATCC90028, Candida glabrata ATCC 90030, Candida krusei ATCC 6258, Candida parapsilosis ATCC 22019.
The cultures were obtained from Mueller-Hinton broth (Difco) for the bacterial strains and the yeasts were maintained in Roswell Park Memorial Institute (RPMI) medium, after an overnight incubation at 37 °C for both. The inocula of the test microorganisms were adjusted to match an equivalent turbidity of a 0.5 McFarland standard, which was determined using a spectrophotometer; the final inoculum size was determined to be 0.5–2.5 × 10^5 cfu/mL for antibacterial and antifungal assays. The tests were carried out for both mediums at pH = 7 and two-fold serial dilutions were applied. The last well on the microplates, which was containing only the inoculated broth, was kept as control, and the last well with no growth of microorganism was recorded to represent the minimum inhibitory concentration (MIC50) in μg/mL. For both of the antibacterial and antifungal assays, the test compounds and reference drugs were firstly dissolved in DMSO, and further dilutions were performed to the desired concentrations of 1000, 500, 250, 125, 62.5, 31.25, 15.6, 7.8, 3.9 and 1.95 μg/mL using Mueller–Hinton broth and RPMI medium. The completed plates were incubated for 24 h, and at the end of the incubation, resazurin (20 µg/mL) was added into each well to control the growth in the wells. Final plates including microorganism strains were incubated for 2 h. MIC50 values were determined using microplate reader at […] wavelengths; MIC50 readings were performed twice for entire compounds. Chloramphenicol and ketoconazole were used as reference drugs.

[2] = tested on: Salmonella typhimurium TA98; assay: Ames MPF genotoxicity assay
Method: (§1) The genotoxicity of selected compounds (2b, 2j, 2m) was determined by Ames assay using Ames MPF 98/100 mutagenicity assay sample kit (Xenometrix AG, Allschwil, Switzerland) as previously described elsewhere. Salmonella typhimurium strains, TA98 (frameshift mutations) and TA100 (base-pair substitutions) were used in the assay. The concentration of the compounds was between 16 and 5000 μg/mL, in accordance with the guideline. Compounds were prepared in six different concentrations (5.0, 2.5, 1.25, 0.625, 0.3125, 0.156 mg/mL) in DMSO. Mutagenic potential was determined in the absence or presence of Aroclor™-1254 induced male Sprague–Dawley rat liver microsomal enzyme (S9) mix (Xenometrix AG). Positive controls without S9 mix were 2-nitrofluorene (2.0 μg/mL) and 4-nitroquinoline N-oxide (0.1 μg/mL), whereas 1.0 μg/mL and 2.5 μg/mL of 2-aminoanthracene solutions were used as positive controls with S9 against TA98 and TA100, respectively. Solvent control was prepared with 4% DMSO. The end of an experiment was determined by the change of the indicator medium colour to yellow, which was originating from the decrease of pH due to revertant bacteria. Yellow wells were counted as positive, and compared with the negative control. Fold induction over the negative control and fold induction over the baseline were calculated (Fold induction over the negative control is accepted as the ratio of the mean number of positive wells for the dose concentration divided by the mean number of positive wells for the zero dose (negative) control. Fold induction over the baseline is accepted as the ratio of the mean number of positive wells for the dose concentration divided by zero dose baseline. The zero-dose baseline is obtained by adding one standard deviation to the mean number of positive wells of the zero dose control. If the baseline is less than 1, the value is set to 1 for calculation).
(§2) Mutagenicity was determined according to the criteria reported previously. For a baseline value of ≤3, significant increases between 2 and 3-fold of the baseline were classified as weak mutagen, and increases ≥3-fold of the baseline were classified as mutagen. […] As a rule, at least two adjacent doses with significant increases or a significant increase at the highest dose level should be observed for a mutagenic compound. All of the doses were compared according to Student’s t-test at p < 0.05 for statistical significance.

[3] = tested on: Salmonella typhimurium TA100; assay: Ames MPF genotoxicity assay
Method: as §1, §2

CC(C)c1ccc(-c2nc3ccccc3n2CCN2CCOCC2)cc1 [Compound 2e, 2-(4-Isopropylphenyl)-1-[2-(morpholin-4-yl)ethyl]-1H-benzimidazole]
MIC50 [1]: 250 µg/mL (≈ 715 µM)

CCOc1ccc(-c2nc3ccccc3n2CCN2CCOCC2)cc1 [Compound 2j, 2-(4-Ethoxyphenyl)-1-[2-(morpholin-4-yl)ethyl]-1H-benzimidazole]
REVERTANTS Fold Increase (over Baseline) ([2]; TA98, S9+, 0.156 mg/mL): 0.25
REVERTANTS Fold Increase (over Baseline) ([2]; TA98, S9+, 0.3125 mg/mL): 0.12 *
REVERTANTS Fold Increase (over Baseline) ([2]; TA98, S9+, 0.625 mg/mL): 0.62
REVERTANTS Fold Increase (over Baseline) ([2]; TA98, S9+, 1.25 mg/mL): 0.74
REVERTANTS Fold Increase (over Baseline) ([2]; TA98, S9+, 2.5 mg/mL): 0.12
REVERTANTS Fold Increase (over Baseline) ([2]; TA98, S9+, 5 mg/mL): 0.74 *
REVERTANTS Fold Increase (over Baseline) ([2]; TA98, S9−, 0.156 mg/mL): 0.60
REVERTANTS Fold Increase (over Baseline) ([2]; TA98, S9−, 0.3125 mg/mL): 0.94
REVERTANTS Fold Increase (over Baseline) ([2]; TA98, S9−, 0.625 mg/mL): 0.68
REVERTANTS Fold Increase (over Baseline) ([2]; TA98, S9−, 1.25 mg/mL): 0.60
REVERTANTS Fold Increase (over Baseline) ([2]; TA98, S9−, 2.5 mg/mL): 0.94
REVERTANTS Fold Increase (over Baseline) ([2]; TA98, S9−, 5 mg/mL): 0.09 ***
Ames MPF mutagenicity classification ([2]; TA98, in the presence/absence of metabolic activation (S9)): non-genotoxic; also recorded: non-mutagenic
REVERTANTS Fold Increase (over Baseline) ([3]; TA100, S9+, 0.156 mg/mL): 0.15
REVERTANTS Fold Increase (over Baseline) ([3]; TA100, S9+, 0.3125 mg/mL): 0.00
REVERTANTS Fold Increase (over Baseline) ([3]; TA100, S9+, 0.625 mg/mL): 0.15
REVERTANTS Fold Increase (over Baseline) ([3]; TA100, S9+, 1.25 mg/mL): 0.38
REVERTANTS Fold Increase (over Baseline) ([3]; TA100, S9+, 2.5 mg/mL): 0.31
REVERTANTS Fold Increase (over Baseline) ([3]; TA100, S9+, 5 mg/mL): 0.15
REVERTANTS Fold Increase (over Baseline) ([3]; TA100, S9−, 0.156 mg/mL): 0.80
REVERTANTS Fold Increase (over Baseline) ([3]; TA100, S9−, 0.3125 mg/mL): 1.00
REVERTANTS Fold Increase (over Baseline) ([3]; TA100, S9−, 0.625 mg/mL): 0.40
REVERTANTS Fold Increase (over Baseline) ([3]; TA100, S9−, 1.25 mg/mL): 0.67
REVERTANTS Fold Increase (over Baseline) ([3]; TA100, S9−, 2.5 mg/mL): 0.67 ***
REVERTANTS Fold Increase (over Baseline) ([3]; TA100, S9−, 5 mg/mL): 1.20
Ames MPF mutagenicity classification ([3]; TA100, with/without metabolic activation (S9)): non-genotoxic; also recorded: non-mutagenic

Clc1ccc(-c2nc3ccccc3n2CCN2CCOCC2)cc1 [Compound 2c, 2-(4-Chlorophenyl)-1-[2-(morpholin-4-yl)ethyl]-1H-benzimidazole]
fold lower MIC50 / greater activity than chloramphenicol ([1]; Pseudomona aeuroginosa ATCC 27853): 2 fold
MIC50 [1]: 125 µg/mL (≈ 366 µM)
